In patent US20210101874A1, “MICROBIOCIDAL OXADIAZOLE DERIVATIVES” (SYNGENTA PARTICIPATIONS AG, priority 2017, published 2021):

What was measured:
[1] = system: Glomerella lagenarium (Colletotrichum lagenarium); experiment: Glomerella lagenarium (Colletotrichum lagenarium) liquid culture / cucumber / preventative (anthracnose); format: cell-based; conditions: Colletotrichum orbiculare; 20 ppm in the applied formulation; conidia in PDB nutrient broth, 24° C.; 3 to 4 days after application; compared to untreated; read-out: disease control (inhibition of growth measured photometrically)
Method: Mycelia fragments or conidia suspensions of a fungus prepared either freshly from liquid cultures of the fungus or from cryogenic storage, are directly mixed into nutrient broth. DMSO solutions of the test compound (max. 10 mg/ml) are diluted with 0.025% Tween20 by a factor of 50 and 10 µl of this solution is pipetted into a microtiter plate (96-well format). The nutrient broth containing the fungal spores/mycelia fragments is then added to give an end concentration of the tested compound. The test plates are incubated in the dark at 24° C. and 96% relative humidity. The inhibition of fungal growth is determined photometrically after 2 to 7 days, depending on the pathosystem, and percent antifungal activity relative to the untreated check is calculated. Conidia of the fungus from cryogenic storage are directly mixed into nutrient broth (PDB—potato dextrose broth). After placing a (DMSO) solution of test compound into a microtiter plate (96-well format), the nutrient broth containing the fungal spores is added. The test plates are incubated at 24° C. and the inhibition of growth is measured photometrically 3 to 4 days after application. The following compounds at 20 ppm in the applied formulation give at least 80% disease control in this test when compared to untreated control under the same conditions, which show extensive disease development.

[2] = system: Puccinia recondita f. sp. Tritici; experiment: Puccinia recondita f. sp. tritici / wheat / leaf disc preventative (brown rust); format: in vivo; conditions: foliar, 200 ppm in the applied formulation, wheat leaf segments cv. Kanzler, inoculated 1 day after application, compared to untreated, assessed 7 to 9 days after application, read-out: disease control
Method: Leaf disks or leaf segments of various plant species are cut from plants grown in a greenhouse. The cut leaf disks or segments are placed in multiwell plates (24-well format) onto water agar. The leaf disks are sprayed with a test solution before (preventative) or after (curative) inoculation. Compounds to be tested are prepared as DMSO solutions (max. 10 mg/ml) which are diluted to the appropriate concentration with 0.025% Tween20 just before spraying. The inoculated leaf disks or segments are incubated under defined conditions (temperature, relative humidity, light, etc.) according to the respective test system. A single evaluation of disease level is carried out 3 to 14 days after inoculation, depending on the pathosystem. Percent disease control relative to the untreated check leaf disks or segments is then calculated. Wheat leaf segments cv. Kanzler were placed on agar in multiwell plates (24-well format) and sprayed with the formulated test compound diluted in water. The leaf disks were inoculated with a spore suspension of the fungus 1 day after application. The inoculated leaf segments were incubated at 19° C. and 75% relative humidity (rh) under a light regime of 12 hours light/12 hours darkness in a climate cabinet and the activity of a compound was assessed as percent disease control compared to untreated when an appropriate level of disease damage appears in untreated check leaf segments (7 to 9 days after application). The following compounds at 200 ppm in the applied formulation give at least 80% disease control in this test when compared to untreated control leaf disks under the same conditions, which show extensive disease development.

Structure (SMILES) | inhibition at 20 ppm [1] | pest or weed control at 200 ppm [2]
O=S(=O)(CC1CC1(Cl)Cl)NCc1ccc(-c2noc(C(F)(F)F)n2)cc1 (centres unmarked) [Compound 3.12, 1-(2,2-dichlorocyclopropyl)-N-[[4-[5-(trifluoromethyl)-1,2,4-oxadiazol-3-yl]phenyl]methyl] methanesulfonamide] | ≥ 80% | ≥ 80%
O=S(=O)(Cc1ccccc1)NCc1ccc(-c2noc(C(F)(F)F)n2)cc1F [Compound 3.23, N-[[2-fluoro-4-[5-(trifluoromethyl)-1,2,4-oxadiazol-3-yl]phenyl]methyl]-1-phenyl-methanesulfonamide] |  | ≥ 80%
COC(=O)CCS(=O)(=O)NCc1ccc(-c2noc(C(F)(F)F)n2)cc1F [Compound 2.33, methyl 3-[[2-fluoro-4-[5-(trifluoromethyl)-1,2,4-oxadiazol-3-yl]phenyl]methyl-sulfamoyl] propanoate] | ≥ 80% | ≥ 80%
COC(=O)CS(=O)(=O)N(Cc1ccc(-c2noc(C(F)(F)F)n2)cc1)OC [Compound 1.57, methyl 2-[methoxy-[[4-[5-(trifluoromethyl)-1,2,4-oxadiazol-3-yl]phenyl]methyl]sulfamoyl]acetate] |  | ≥ 80%
O=S(=O)(Cc1ccccc1)NCc1ccc(-c2noc(C(F)(F)F)n2)c(F)c1 [Compound 3.22, N-[[3-fluoro-4-[5-(trifluoromethyl)-1,2,4-oxadiazol-3-yl]phenyl]methyl]-1-phenyl-methanesulfonamide] |  | ≥ 80%
O=S(=O)(CCC(F)(F)F)NCc1ccc(-c2noc(C(F)(F)F)n2)c(F)c1 [Compound 2.18, 3,3,3-trifluoro-N-[[3-fluoro-4-[5-(trifluoromethyl)-1,2,4-oxadiazol-3-yl]phenyl]methyl] propane-1-sulfonamide] | ≥ 80% | ≥ 80%
CCCCS(=O)(=O)NCc1ccc(-c2noc(C(F)(F)F)n2)c(F)c1 [Compound 2.22, N-[[3-fluoro-4-[5-(trifluoromethyl)-1,2,4-oxadiazol-3-yl]phenyl]methyl] butane-1-sulfonamide] | ≥ 80% | ≥ 80%
COC(=O)CS(=O)(=O)NCc1ccc(-c2noc(C(F)(F)F)n2)cc1 [Compound 2.11, methyl 2-[[4-[5-(trifluoromethyl)-1,2,4-oxadiazol-3-yl]phenyl]methyl-sulfamoyl] acetate] | ≥ 80% | 
COCCS(=O)(=O)N(Cc1ccc(-c2noc(C(F)(F)F)n2)cc1)OC [Compound 1.40, N,2-dimethoxy-N-[[4-[5-(trifluoromethyl)-1,2,4-oxadiazol-3-yl]phenyl]methyl] ethanesulfonamide] | ≥ 80% | 
CNS(=O)(=O)N(Cc1ccc(-c2noc(C(F)(F)F)n2)cc1)OC [Compound 1.58, 3-[4-[[methoxy(methylsulfamoyl)amino]methyl]phenyl]-5-(trifluoromethyl)-1,2,4-oxadiazole] | ≥ 80% | 
O=S(=O)(NCc1ccc(-c2noc(C(F)(F)F)n2)cc1F)c1ccccc1 [Compound 3.32, N-[[2-fluoro-4-[5-(trifluoromethyl)-1,2,4-oxadiazol-3-yl]phenyl]methyl] benzenesulfonamide] |  | ≥ 80%
CCCCS(=O)(=O)N(C)Cc1ccc(-c2noc(C(F)(F)F)n2)cc1 [Compound 1.55, N-methyl-N-[[4-[5-(trifluoromethyl)-1,2,4-oxadiazol-3-yl]phenyl]methyl] butane-1-sulfonamide] | ≥ 80% | 
C/C=C/S(=O)(=O)N(Cc1ccc(-c2noc(C(F)(F)F)n2)cc1)OC [Compound 1.94, (E)-N-methoxy-N-[[4-[5-(trifluoromethyl)-1,2,4-oxadiazol-3-yl]phenyl]methyl] prop-1-ene-1-sulfonamide] | ≥ 80% | 
CCN(Cc1ccc(-c2noc(C(F)(F)F)n2)cc1)S(=O)(=O)CC1CC1(Cl)Cl (centres unmarked) [Compound 1.31, 1-(2,2-dichlorocyclopropyl)-N-ethyl-N-[[4-[5-(trifluoromethyl)-1,2,4-oxadiazol-3-yl]phenyl]methyl] methanesulfonamide] | ≥ 80% | 
CCCCS(=O)(=O)NCc1ccc(-c2noc(C(F)(F)F)n2)cc1F [Compound 2.23, N-[[2-fluoro-4-[5-(trifluoromethyl)-1,2,4-oxadiazol-3-yl]phenyl]methyl] butane-1-sulfonamide] | ≥ 80% | 
COC(=O)CS(=O)(=O)NCc1ccc(-c2noc(C(F)(F)F)n2)c(F)c1 [Compound 2.20, methyl 2-[[3-fluoro-4-[5-(trifluoromethyl)-1,2,4-oxadiazol-3-yl]phenyl]methyl-sulfamoyl] acetate] | ≥ 80% | 
CCCN(Cc1ccc(-c2noc(C(F)(F)F)n2)cc1)S(=O)(=O)CCC(=O)OC [Compound 1.72, methyl 3-[propyl-[[4-[5-(trifluoromethyl)-1,2,4-oxadiazol-3-yl]phenyl]methyl]sulfamoyl]propanoate] | ≥ 80% | 
CON(Cc1ccc(-c2noc(C(F)(F)F)n2)cc1)S(=O)(=O)c1ccn(C)n1 [Compound 1.88, N-methoxy-1-methyl-N-[[4-[5-(trifluoromethyl)-1,2,4-oxadiazol-3-yl]phenyl]methyl] pyrazole-3-sulfonamide] |  | ≥ 80%
Cc1ccc(S(=O)(=O)NCc2ccc(-c3noc(C(F)(F)F)n3)c(F)c2)s1 [Compound 3.15, N-[[3-fluoro-4-[5-(trifluoromethyl)-1,2,4-oxadiazol-3-yl]phenyl]methyl]-5-methyl-thiophene-2-sulfonamide] | ≥ 80% | 
O=S(=O)(Cc1ccccc1)N(Cc1ccc(-c2noc(C(F)(F)F)n2)cc1)C1CC1 [Compound 1.4, N-cyclopropyl-1-phenyl-N-[[4-[5-(trifluoromethyl)-1,2,4-oxadiazol-3-yl]phenyl]methyl] methanesulfonamide] | ≥ 80% | 
CCCN(Cc1ccc(-c2noc(C(F)(F)F)n2)cc1)S(=O)(=O)CC [Compound 1.78, N-propyl-N-[[4-[5-(trifluoromethyl)-1,2,4-oxadiazol-3-yl]phenyl]methyl] ethanesulfonamide] | ≥ 80% | 
CCCN(Cc1ccc(-c2noc(C(F)(F)F)n2)cc1)S(=O)(=O)CCC [Compound 1.26, N-propyl-N-[[4-[5-(trifluoromethyl)-1,2,4-oxadiazol-3-yl]phenyl]methyl] propane-1-sulfonamide] | ≥ 80% | 
CC(C)N(Cc1ccc(-c2noc(C(F)(F)F)n2)cc1)S(=O)(=O)Cc1ccccc1 [Compound 1.99, N-isopropyl-1-phenyl-N-[[4-[5-(trifluoromethyl)-1,2,4-oxadiazol-3-yl]phenyl]methyl) methanesulfonamide] | ≥ 80% | 
CCN(Cc1ccc(-c2noc(C(F)(F)F)n2)cc1)S(=O)(=O)c1ccccc1 [Compound 1.24, N-ethyl-N-[[4-[5-(trifluoromethyl)-1,2,4-oxadiazol-3-yl]phenyl]methyl] benzenesulfonamide] | ≥ 80% | 
CCCN(Cc1ccc(-c2noc(C(F)(F)F)n2)cc1)S(=O)(=O)Cc1ccccc1 [Compound 1.77, 1-phenyl-N-propyl-N-[[4-[5-(trifluoromethyl)-1,2,4-oxadiazol-3-yl]phenyl]methyl] methanesulfonamide] | ≥ 80% | 
C=CCS(=O)(=O)N(Cc1ccc(-c2noc(C(F)(F)F)n2)cc1)OC [Compound 1.92, N-methoxy-N-[[4-[5-(trifluoromethyl)-1,2,4-oxadiazol-3-yl]phenyl]methyl] prop-2-ene-1-sulfonamide] | ≥ 80% | 
Cc1ccc(S(=O)(=O)NCc2ccc(-c3noc(C(F)(F)F)n3)cc2F)s1 [Compound 3.25, N-[[2-fluoro-4-[5-(trifluoromethyl)-1,2,4-oxadiazol-3-yl]phenyl]methyl]-5-methyl-thiophene-2-sulfonamide] | ≥ 80% | 
C/C=C/S(=O)(=O)N(CCC)Cc1ccc(-c2noc(C(F)(F)F)n2)cc1 [Compound 1.75, (E)-N-propyl-N-[[4-[5-(trifluoromethyl)-1,2,4-oxadiazol-3-yl]phenyl]methyl] prop-1-ene-1-sulfonamide] | ≥ 80% | 
